Like-named read-outs stand apart in the source and are kept apart here.
Tests used:
[1] = Effect of naltrexone on alcohol stimulation (BAES); assay type: in vivo, human; conditions: calculated from Ray et al. (Arch Gen Psychiatry 2007)
Method: No human studies have examined perampanel in psychiatric/substance-using populations. We calculated an effect size for naltrexone based on Ray et al. (Arch Gen Psychiatry. 2007; 64(9):1069-77), for the effect of naltrexone on stimulation (BAES) and will extrapolate this effect to perampanel. Based on this calculated effect size (d) of 0.45 (e.g. a moderate effect size), we should be able to show a significant difference between perampanel and placebo groups using a two-sided, […] t-test, with alpha=0.05 and power (1-Beta) of 0.80 with n=21 subjects in each experimental group (total N=42). We will recruit and enter N=50 subjects, in order to complete at least 42.

AMPA receptor [2] = conditions: in vitro, rat hippocampal slices; cited from earlier work
CYP3A4 = CYP3A4 (Homo sapiens, UniProt P08684); conditions: cited from earlier work
CYP3A4, sequence (P08684 whole entry): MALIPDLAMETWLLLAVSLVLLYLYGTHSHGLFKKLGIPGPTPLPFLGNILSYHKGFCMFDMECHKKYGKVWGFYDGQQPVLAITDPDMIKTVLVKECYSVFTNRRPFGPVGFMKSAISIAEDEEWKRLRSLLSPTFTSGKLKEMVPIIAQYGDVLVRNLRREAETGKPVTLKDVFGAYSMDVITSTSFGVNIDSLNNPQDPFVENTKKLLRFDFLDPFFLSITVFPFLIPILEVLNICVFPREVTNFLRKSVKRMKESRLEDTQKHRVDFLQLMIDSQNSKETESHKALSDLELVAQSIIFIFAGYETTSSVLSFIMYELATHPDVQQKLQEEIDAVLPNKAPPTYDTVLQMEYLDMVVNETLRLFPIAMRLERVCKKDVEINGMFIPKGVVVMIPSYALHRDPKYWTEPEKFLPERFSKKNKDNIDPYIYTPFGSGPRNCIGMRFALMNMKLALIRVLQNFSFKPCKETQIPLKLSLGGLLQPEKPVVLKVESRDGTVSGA

[3] = cited from earlier work
[4] = in vivo; cited from earlier work
[5] = in vivo; cited from earlier work; remark: listed apart in the source
[6] = cited from earlier work; remark: listed apart in the source
AMPA receptor [7] = conditions: animal spinal neurons; cited from earlier work
[8] = cited from earlier work; remark: listed apart in the source

Row | SMILES | effect size (d) on stimulation (BAES) [1] | selectivity of action on the AMPA receptor (AMPA receptor [2]) | metabolising enzyme (CYP3A4) | medication related adverse events/side effects ([3]; chronic dosing in epilepsy trials) | tolerability ([3]; human subjects, doses of 8 mg or 12 mg daily) | bioavailability [4] | pharmacokinetic linearity [4] | blood-brain-barrier penetration [5] | maximum tolerated single oral dose ([6]; healthy human subjects, single oral dose) | medication related adverse events/side effects ([6]; human, in vivo) | selectivity of action on the AMPA receptor (AMPA receptor [7]) | elimination half-life T1/2 ([8]; healthy volunteers) | absorption in the gastrointestinal system ([8]; orally active) | time to peak plasma concentration (Tmax) ([8]; post-ingestion)
1 | O=C1CC[C@@]2(O)[C@H]3Cc4ccc(O)c5c4[C@@]2(CCN3CC2CC2)[C@H]1O5 [naltrexone] | 0.45 |  |  |  |  |  |  |  |  |  |  |  |  | 
2 | N#Cc1ccccc1-c1cc(-c2ccccn2)cn(-c2ccccc2)c1=O [perampanel] |  | selective action | primarily metabolized by CYP3A4 | dizziness, somnolence, irritability, headache, fall, and ataxia | well tolerated | about 100% | linear pharmacokinetics | effectively penetrates the blood-brain-barrier |  |  |  |  |  | 
3 | CC(=O)N1N=C(c2ccc(N)cc2)c2cc3c(cc2C[C@H]1C)OCO3 [talampanel] |  |  |  |  |  |  |  | good blood-brain-barrier penetration | 100 mg | dizziness, sedation, and ataxia | selective action | approximately 4 hours | easily absorbed | approximately 2 hours

From patent US20170173039A1, “COMPOSITIONS AND METHODS TO TREAT ADDICTION” (YALE UNIVERSITY, priority 2014, published 2017)
